The results in this text go back to ChEMBL document CHEMBL3046540, “Statistically validated QSAR study of some antagonists of the human CCR5 receptor using least square support vector machine based on the genetic algorithm and factor analysis” (Med Chem Res, 2013).

The target in this test is C-C chemokine receptor type 5 (Homo sapiens, UniProt P51681). Description: Antagonist activity at Homo sapiens (human) CCR5 receptor.
Sequence of C-C chemokine receptor type 5 (P51681 whole entry): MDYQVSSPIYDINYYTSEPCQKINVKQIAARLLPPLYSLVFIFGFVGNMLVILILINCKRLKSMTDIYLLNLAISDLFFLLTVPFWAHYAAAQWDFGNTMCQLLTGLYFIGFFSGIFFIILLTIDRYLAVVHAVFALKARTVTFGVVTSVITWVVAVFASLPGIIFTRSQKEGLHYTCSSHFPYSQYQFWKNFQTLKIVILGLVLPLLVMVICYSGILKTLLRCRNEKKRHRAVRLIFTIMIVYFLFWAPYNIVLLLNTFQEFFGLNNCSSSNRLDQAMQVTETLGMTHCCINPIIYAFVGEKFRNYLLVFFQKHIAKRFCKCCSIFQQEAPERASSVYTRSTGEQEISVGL
One may read the IC50 as the concentration at which inhibition is half-maximal. Regarding `CCCN(C(=O)NC)C1CCN(CCC(CN(C)S(=O)(=O)c2ccccc2)c2ccccc2)CC1` (configuration not stated), the IC50 was 1000 nM.

`CN(CC(CCN1CCC(NC(=O)NCc2ccccc2)CC1)c1ccccc1)S(=O)(=O)c1ccccc1` (configuration not stated) showed a half-maximal inhibitory concentration (IC50) of 2.51 nM.

`CCCN(C(=O)OCc1ccccc1)C1CCN(CC[C@H](CN(C)S(=O)(=O)c2ccccc2)c2ccccc2)CC1` gave a half-maximal inhibitory concentration (IC50) of 3.98 nM.

Regarding `COC(=O)NC1CCN(CC[C@H](CN(C)S(=O)(=O)c2ccccc2)c2ccccc2)CC1`, the IC50 is 1000 nM.

In turn, `CCN(C(=O)OC)C1CCN(CC[C@H](CN(C)S(=O)(=O)c2ccccc2)c2cccc(Cl)c2)CC1` gave a half-maximal inhibitory concentration (IC50) of 39.8 nM.

For the molecule `CNC(=O)NC1CCN(CCC(CN(C)S(=O)(=O)c2ccccc2)c2ccccc2)CC1` (configuration not stated), the concentration for half-maximal inhibition (IC50) is 120 nM.

In turn, `CCCN(C(=O)OCc1ccc(C(N)=O)cc1)C1CCN(CC[C@H](CN(C)S(=O)(=O)c2ccccc2)c2ccccc2)CC1` showed an IC50 of 3.02 nM.

With `CCCN(C(=O)OCc1cccc(C(N)=O)c1)C1CCN(CC[C@H](CN(C)S(=O)(=O)c2ccccc2)c2ccccc2)CC1`, the half-inhibitory concentration (IC50) is 0.794 nM.

The molecule `CCCN(C(=O)OCc1ccccc1C)C1CCN(CC[C@H](CN(C)S(=O)(=O)c2ccccc2)c2ccccc2)CC1` gave an IC50 of 1.51 nM.

`C=CCN(C(=O)Nc1ccc([N+](=O)[O-])cc1)C1CCN(CCC(CN(C)S(=O)(=O)c2ccccc2)c2ccccc2)CC1` (configuration not stated) showed an IC50 of 0.759 nM.

For `C=CCN(C(=O)c1ccc([N+](=O)[O-])cc1)C1CCN(CCC(CN(C)S(=O)(=O)c2ccccc2)c2ccccc2)CC1` (configuration not stated), 2 nM corresponded to half-maximal inhibition (IC50).

In turn, `CCN(C(=O)NCc1ccccc1)C1CCN(CCC(CN(C)S(=O)(=O)c2ccccc2)c2ccccc2)CC1` (configuration not stated) gave an IC50 of 100 nM.
